{
  "source": "patent US20240287048A1",
  "about": "“SUBSTITUTED ACYL SULFONAMIDES FOR TREATING CANCER” (The Broad Institute, Inc., priority 2020, published 2024)",
  "key": {"[1]": {"system": "LCLC-97TM1 cells", "experiment": "Proliferation assay in LCLC-97TM1 cells", "assay_type": "cell-based", "conditions": "Homo sapiens, 144 h, Alamar Blue, read-out: LCLC97TM1 proliferation assay, EC50[M] (arithmetic mean)", "outline": "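LCLC-97TM1 large-cell lung carcinoma cells were seeded at 6000 per well in RPMI 1640 with 2.5% FBS and exposed to compound for 144 h at 37 °C, 5% CO2, in triplicate. Viability was read by Alamar Blue fluorescence at 590 nm after 2 h.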"}, "[2]": {"system": "Salmonella tester strain TA1537", "experiment": "Bacterial reverse gene mutation test Ames MPF Penta I, TA1537", "assay_type": "cell-based", "from_the_text": "(§1) The employed commercial assay Ames MPF Penta I comprises the histidine auxotrophic Salmonella tester strains TA98, TA100, TA1535, TA1537 and two tryptophan auxotrophic tester strains E. coli wp2 (E. coli wp2 [pKM101] and E. coli wp2 uvrA, combined exposure). These strains meet the requirements of the OECD guideline 471 for testing chemicals.\n(§2) Bacterial strains were exposed to various concentrations of the test compounds in a histidine (His) or tryptophane (Trp) deficient medium. As recommended by ICH S2(R1) guideline, the test was conducted in two assay conditions, with and without addition of microsomal enzymes (S9 mix), taking the potential formation of DNA reactive metabolites via xenobiotic biotransformation into account.\n(§3) The potential of the test compound to induce gene mutations is assessed by comparing the control with the test compounds treated bacterial cultures."}, "[3]": {"target": "T1, KAT6B (Homo sapiens, UniProt Q8WYB5)", "T1 construct": "fused on or other part: N-terminal GST tag", "T1 sequence (Q8WYB5 723-2073 limits assumed)": "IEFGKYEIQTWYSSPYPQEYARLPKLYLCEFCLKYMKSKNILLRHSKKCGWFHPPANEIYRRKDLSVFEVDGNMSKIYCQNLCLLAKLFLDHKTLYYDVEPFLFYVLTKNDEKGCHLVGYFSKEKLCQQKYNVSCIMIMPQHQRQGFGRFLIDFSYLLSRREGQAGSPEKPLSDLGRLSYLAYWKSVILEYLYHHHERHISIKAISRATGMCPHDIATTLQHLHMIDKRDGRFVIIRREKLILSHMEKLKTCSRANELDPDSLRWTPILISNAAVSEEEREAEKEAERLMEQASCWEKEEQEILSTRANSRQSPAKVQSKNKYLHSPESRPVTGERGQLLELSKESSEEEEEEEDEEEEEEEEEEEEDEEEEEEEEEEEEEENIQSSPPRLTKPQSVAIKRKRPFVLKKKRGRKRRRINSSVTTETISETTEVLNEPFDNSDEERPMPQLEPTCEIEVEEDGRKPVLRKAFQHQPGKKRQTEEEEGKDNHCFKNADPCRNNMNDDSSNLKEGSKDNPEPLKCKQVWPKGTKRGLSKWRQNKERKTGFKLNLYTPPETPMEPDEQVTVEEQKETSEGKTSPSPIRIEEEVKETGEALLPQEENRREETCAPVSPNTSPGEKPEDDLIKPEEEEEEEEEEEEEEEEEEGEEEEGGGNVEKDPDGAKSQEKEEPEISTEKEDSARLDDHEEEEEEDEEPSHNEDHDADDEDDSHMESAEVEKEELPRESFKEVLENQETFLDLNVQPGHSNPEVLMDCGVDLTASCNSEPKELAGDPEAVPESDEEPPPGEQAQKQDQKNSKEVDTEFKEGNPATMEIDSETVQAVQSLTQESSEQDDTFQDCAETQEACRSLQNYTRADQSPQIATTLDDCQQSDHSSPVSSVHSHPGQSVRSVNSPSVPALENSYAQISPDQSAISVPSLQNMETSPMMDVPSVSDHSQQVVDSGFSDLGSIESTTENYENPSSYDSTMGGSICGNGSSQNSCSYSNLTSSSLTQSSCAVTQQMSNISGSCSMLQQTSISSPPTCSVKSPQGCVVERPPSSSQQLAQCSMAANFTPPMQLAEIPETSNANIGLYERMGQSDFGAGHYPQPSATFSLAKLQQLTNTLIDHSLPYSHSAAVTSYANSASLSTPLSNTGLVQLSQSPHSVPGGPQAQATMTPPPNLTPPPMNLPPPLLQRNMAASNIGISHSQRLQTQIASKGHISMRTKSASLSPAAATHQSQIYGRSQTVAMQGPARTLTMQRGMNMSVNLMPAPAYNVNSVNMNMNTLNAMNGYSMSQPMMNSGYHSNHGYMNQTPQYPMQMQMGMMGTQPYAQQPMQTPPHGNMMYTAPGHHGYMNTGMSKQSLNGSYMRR", "experiment": "Kat6b activity assay (TR-FRET, acetylation of biotinylated histone H4 peptide)", "assay_type": "biochemical", "conditions": "recombinant human GST-tagged Kat6b (431-end), 30 mins at 22° C., read-out: KAT6B activity assay IC50 [mol/l] (arithmetic mean)", "from_the_text": "Kat6b inhibitory activities of the compounds described in the present invention were quantified using a Fluorescence Resonance Energy Transfer (TR-FRET) assay which measures acetylation of a synthetic, biotinylated Histone-H4-derived peptide by the enzyme.\nRecombinant human GST-tagged Kat6b protein (431-end, N-terminal GST-tag), purified from Baculovirus-infected insect cells (Sf9), was purchased from SignalChem (#K315-381BG). Histone H4 peptide (amino acids 1-24, […]-VLRD-K(Btn)-amide), which was used as substrate, was synthesized by Biosyntan GmbH, Berlin, Germany. Acetyl Coenzyme A was purchased from Sigma-Aldrich (#A-2056).\nKat6b was incubated for 30 mins at 22° C. in the presence of different concentrations of test substances (0 μM, and within the range 0.01-20 μM) in assay buffer [25 mM Tris/HCl pH 8, 1 mM EGTA, 2.5 mM Glutathion, 0.02% Chicken Albumin, 0.05% Pluronic F127, 25 mM NaCl, 500 nM H4 peptide and 600 nM Acetyl Coenzyme A].\nThe reaction was stopped by addition of Detection Solution (25 mM HEPES pH 7.5, 0.1% BSA, 22 nM SAXL665 (Cisbio #610SAXLE), 100 μM Anacardic Acid (Enzo #ALX-270-381), 1 nM Anti-Histone H4 (ACETYL K8) Antibody (ABCAM #AB15823), 0.5 nM Anti-Rabbit IgG Eu (Perkin Elmer #AD0083).\nThe fluorescence emission at 620 nm and 665 nm after excitation at 330-350 nm was measured in a TR-FRET measuring instrument, for instance a Rubystar or a Pherastar (both from BMG Lab Technologies, Offenburg, Germany) or a Viewlux (Perkin-Elmer). The ratio of the emission at 665 nm and at […] was used as indicator of the amount of acetylated peptide.\nThe resulting data (ratio) were normalized, taking 0% inhibition as the mean value of control measurements where all reagents were included. In this case 50 nl DMSO were used instead of compounds. […] IC50 values were determined by regression analysis based on a 4 parameter equation (minimum, maximum, ICM, Hill; Y=Max+(Min−Max)/(1+(X/ICso) Hill) using the Screener Software (Genedata)."}, "[4]": {"system": "MDA-MB-436 cells", "experiment": "Proliferation assay in MDA-MB-436 cells (negative control cell line)", "assay_type": "cell-based", "conditions": "Homo sapiens, 144 h, Alamar Blue, read-out: MDA-MB-436 proliferation assay, EC50[M] (arithmetic mean)", "outline": "(§4)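 KAT6A-amplified ZR-75-1 cells (RPMI 1640, 2.5% FBS) and KAT6A-low MDA-MB-436 cells (DMEM/Ham's F12, 2.5% FBS) were seeded at 3000 cells/well. Treatment lasted 144 h at 37 °C, 5% CO2, in triplicate. Viability was read by Alamar Blue (2 h) fluorescence at […].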"}, "[5]": {"system": "ZR-75-1 cells", "experiment": "Proliferation assay in ZR-75-1 cells", "assay_type": "cell-based", "conditions": "Homo sapiens, 144 h, Alamar Blue, read-out: ZR75-1 proliferation assay, EC50[M] (arithmetic mean)", "outline": "as §4"}, "[6]": {"system": "Salmonella tester strain TA100", "experiment": "Bacterial reverse gene mutation test Ames MPF Penta I, TA100", "assay_type": "cell-based", "from_the_text": "as §1, §2, §3"}, "[7]": {"system": "Salmonella tester strain TA1535", "experiment": "Bacterial reverse gene mutation test Ames MPF Penta I, TA1535", "assay_type": "cell-based", "from_the_text": "as §1, §2, §3"}, "[8]": {"system": "E. coli wp2 (E. coli wp2 [pKM101] and E. coli wp2 uvrA, combined exposure)", "experiment": "Bacterial reverse gene mutation test Ames MPF Penta I, E. coli wp2", "assay_type": "cell-based", "from_the_text": "as §1, §2, §3"}, "[9]": {"system": "Salmonella tester strain TA98", "experiment": "Bacterial reverse gene mutation test Ames MPF Penta I, TA98", "assay_type": "cell-based", "from_the_text": "as §1, §2, §3"}},
  "data": [
    {"compound": "O=C(NS(=O)(=O)c1ccccc1-c1ccccc1)c1cc2ccc(C3CC3)cc2o1", "note": "[Example 16, N-([1,1′-biphenyl]-2-sulfonyl)-6-cyclopropyl-1-benzofuran-2-carboxamide]", "values": [
      {"measurement": "EC50", "setting": "[1]", "value": "1.14e-05", "unit": "M"},
      {"measurement": "Result of the bacterial reverse gene mutation test Ames MPF Penta I, TA1537", "setting": "[2]; with addition of S9 mix", "value": "negative"},
      {"measurement": "Result of the bacterial reverse gene mutation test Ames MPF Penta I, TA1537", "setting": "[2]; without addition of S9 mix", "value": "negative"},
      {"measurement": "IC50", "setting": "[3]", "value": 0.104, "unit": "µM"},
      {"measurement": "EC50", "setting": "[4]", "value": "> 2e-05", "unit": "M"},
      {"measurement": "EC50", "setting": "[5]", "value": "5.93e-06", "unit": "M"},
      {"measurement": "Result of the bacterial reverse gene mutation test Ames MPF Penta I, TA100", "setting": "[6]; with addition of S9 mix", "value": "negative"},
      {"measurement": "Result of the bacterial reverse gene mutation test Ames MPF Penta I, TA100", "setting": "[6]; without addition of S9 mix", "value": "negative"},
      {"measurement": "Result of the bacterial reverse gene mutation test Ames MPF Penta I, TA1535", "setting": "[7]; with addition of S9 mix", "value": "negative"},
      {"measurement": "Result of the bacterial reverse gene mutation test Ames MPF Penta I, TA1535", "setting": "[7]; without addition of S9 mix", "value": "negative"},
      {"measurement": "Result of the bacterial reverse gene mutation test Ames MPF Penta I, E. coli wp2", "setting": "[8]; with addition of S9 mix", "value": "negative"},
      {"measurement": "Result of the bacterial reverse gene mutation test Ames MPF Penta I, E. coli wp2", "setting": "[8]; without addition of S9 mix", "value": "negative"},
      {"measurement": "Result of the bacterial reverse gene mutation test Ames MPF Penta I, TA98", "setting": "[9]; with addition of S9 mix", "value": "negative"},
      {"measurement": "Result of the bacterial reverse gene mutation test Ames MPF Penta I, TA98", "setting": "[9]; without addition of S9 mix", "value": "negative"}
    ]},
    {"compound": "CCOc1ccccc1S(=O)(=O)NC(=O)c1cc2ccc(C(C)C)cc2o1", "note": "[Example 55, N-(2-Ethoxybenzenesulfonyl)-6-(propan-2-yl)-1-benzofuran-2-carboxamide]", "values": [
      {"measurement": "EC50", "setting": "[1]", "value": "> 2e-05", "unit": "M"},
      {"measurement": "Result of the bacterial reverse gene mutation test Ames MPF Penta I, TA1537", "setting": "[2]; with addition of S9 mix", "value": "negative"},
      {"measurement": "Result of the bacterial reverse gene mutation test Ames MPF Penta I, TA1537", "setting": "[2]; without addition of S9 mix", "value": "negative"},
      {"measurement": "IC50", "setting": "[3]", "value": 0.538, "unit": "µM"},
      {"measurement": "EC50", "setting": "[4]", "value": "> 2e-05", "unit": "M"},
      {"measurement": "EC50", "setting": "[5]", "value": "1.27e-05", "unit": "M"},
      {"measurement": "Result of the bacterial reverse gene mutation test Ames MPF Penta I, TA100", "setting": "[6]; with addition of S9 mix", "value": "negative"},
      {"measurement": "Result of the bacterial reverse gene mutation test Ames MPF Penta I, TA100", "setting": "[6]; without addition of S9 mix", "value": "negative"},
      {"measurement": "Result of the bacterial reverse gene mutation test Ames MPF Penta I, TA1535", "setting": "[7]; with addition of S9 mix", "value": "negative"},
      {"measurement": "Result of the bacterial reverse gene mutation test Ames MPF Penta I, TA1535", "setting": "[7]; without addition of S9 mix", "value": "negative"},
      {"measurement": "Result of the bacterial reverse gene mutation test Ames MPF Penta I, E. coli wp2", "setting": "[8]; with addition of S9 mix", "value": "negative"},
      {"measurement": "Result of the bacterial reverse gene mutation test Ames MPF Penta I, E. coli wp2", "setting": "[8]; without addition of S9 mix", "value": "negative"},
      {"measurement": "Result of the bacterial reverse gene mutation test Ames MPF Penta I, TA98", "setting": "[9]; with addition of S9 mix", "value": "negative"},
      {"measurement": "Result of the bacterial reverse gene mutation test Ames MPF Penta I, TA98", "setting": "[9]; without addition of S9 mix", "value": "negative"}
    ]}
  ]
}
